Common to all, as to format: in vivo, human
Data set [1] relates to blood vessels at a site having prolonged pain. Put plainly: Endovascular therapy to blood vessels at a site having prolonged pain, symptom improvement and side effects (Example 4). Also on record: key to Effect (improvement in symptoms): an exacerbation in symptom=0; no change=1; an improvement in symptom and easiness in dairy living=2; almost satisfactory improvement=3; Side effect: scale not given here. How it is done:
To 14 subject cases indicated in the table below who had blood vessels at a site having prolonged pain, endovascular therapy was carried out as follows, using pembrolizumab.
In all cases, fat suppression T2-weighted MRI image was obtained before treatment to select target vessels. 3Fr intraarterial-indwelling sheath (Medikit Co., Ltd.) was inserted from femoral artery by Seldinger method, allowed to reach the target vessel using 3Fr angiography catheter (Medikit Co., Ltd.), Radifocus 0.032″ external diameter guide wire (TERUMO Corp.), and microcatheter ASAHI Tellus C3, ASAHI Meister 0.016″ micro guide wire (ASAHI INTECC Co., Ltd.) as appropriate, then abnormal vascular networks are identified by contrast imaging.
Subsequently, as shown in the table, pembrolizumab 1 to 4 mg/body (mean=1.86 mg/body, median=2 mg/body) was mixed with the combined drugs in 100 ml of physiological saline, stirred with a stirrer while being infused into the target vessel in an amount such that a sufficient decrease in abnormal vessel density was confirmed.
The level of post-treatment improvement in symptoms was assessed after 3 weeks or longer. A stepwise assessment was done as follows: an exacerbation in symptom=0, no change=1, an improvement in symptom and easiness in dairy living=2, almost satisfactory improvement=3.

The subject of another data set is microvasculature. Kind of data set: Contrast imaging of microvascular blood flow / vessel density after infusion. How it is done:
When it is used for decreasing microvascular blood flow according to the present invention, the dose of the immune checkpoint inhibitor to be administered will vary depending on the type of the immune checkpoint inhibitor to be administered, though a skilled person can calculate an appropriate amount.
It was shown that each of the immune checkpoint inhibitors causes a clear change in tumor hemodynamics by single-agent administration 2 to 3 minutes after the infusion from the tumor vessel. Moreover, an immediate relief from cancerous pain by administration is also confirmed. Adding to these, their original effect of inhibiting immune checkpoint can also be expected, providing a prospective of relatively longer lasting effect by administration of single agent.
In all cases, fat suppression T2-weighted MRI image was obtained before treatment to select target vessels. 3Fr intraarterial-indwelling sheath (Medikit Co., Ltd.) was inserted from femoral artery by Seldinger method, allowed to reach the target vessel using 3Fr angiography catheter (Medikit Co., Ltd.), Radifocus 0.032″ external diameter guide wire (TERUMO Corp.), and microcatheter ASAHI Tellus C3, ASAHI Meister 0.016″ micro guide wire (ASAHI INTECC Co., Ltd.) as appropriate, then abnormal vascular networks are identified by contrast imaging. […]

In the next data set the test system is tumor. Put plainly: Endovascular therapy case reports, tumor response (Example 3). On the set-up: key: CR indicates an elimination of tumor from the imaging; PR indicates >50% reduction of tumor diameter; MR indicates >30% reduction of tumor diameter; NC indicates <30% reduction of tumor diameter; PD indicates an increase in tumor diameter. How it is done: Short-term tumor-reducing effect in 1 month after the administration was assessed by MRI or CT imaging. In the table, CR indicates an elimination of tumor from the imaging, PR indicates >50% reduction of tumor diameter, MR indicates >30% reduction of tumor diameter, NC indicates <30% reduction of tumor diameter, and PD indicates an increase in tumor diameter.
To Patient A who had suffered from breast cancer, an endovascular therapy was carried out using nivolumab 10 mg, pertuzumab 60 mg, bortezomib 0.7 mg, thrombomodulin 3200 U and maxacalcitol 10 μg. This patient was marked as CR by such treatment.
To Patient B who had suffered from malignant fibrous histiocytoma in right femur, an endovascular therapy was carried out using 20 mg of nivolumab. This patient was marked as CR after 3 treatments using 20 mg of nivolumab per each administration.
To Patience C who had suffered from hepatitis C and had developed liver cancer, an endovascular therapy was carried out using nivolumab 10 mg, bortezomib 0.7 mg, etanercept 25 mg, maxacalcitol 10 μg and imipenem/cilastatin sodium 500 mg/body for each administration. This patient was marked as CR after two treatments.
(§1) This patient was subjected to an endovascular therapy using nivolumab 10 mg, bortezomib 0.7 mg, etanercept 25 mg, maxacalcitol 10 μg, and thrombomodulin 3200 U, and was marked as CR by such treatment. […] FIG. 4 is a graph showing the transition of % IS of BCR-ABL mRNA before and after the endovascular therapy for the […] in this patient.

A further data set relates to BCR-ABL mRNA. Kind of data set: % IS of BCR-ABL mRNA, marker for chronic myeloid leukemia, before and after endovascular therapy. Particulars: Patient D, after endovascular therapy for bladder cancer (time point 2 to 3, FIG. 4). How it is done:
as §1

Entries after “also recorded” stand apart in the source; their conditions may differ.

Regarding pembrolizumab, the Side effect in data set [1] (Case 1, Left gonarthritis, P 1 mg/body + imp/cs 500, bv 50, bort 0.35, maxa 10) was determined as 0; in data set [1] (Case 2, Elbow joint RA, P 4 mg/body + eta 25, bort 0.35, imp/cs 500), 0; in data set [1] (Case 3, Hip osteoarthritis, P 3 mg/body + eta 25, bort 0.35, maxa 10, imp/cs 501), 0; in data set [1] (Case 4, Left shoulder pain, P 3 mg/body + bort 0.35), 0; in data set [1] (Case 5, Lumbar spinal stenosis, P 2 mg/body + bort 0.36) it was 0; in data set [1] (Case 6, Right foot Lisfranc joint injury, P 1 mg/body + bv 50, bort 0.35, eta 25, maxa 10), 0. Further, the Side effect in data set [1] (Case 7, Low back pain after spinal compression fracture, P 1 mg/body + bort 0.35, eta 25, maxa 10, reco 3200) was found to be 0; in data set [1] (Case 8, Right knee RA, P 2 mg/body + bort 0.35, eta 25, reco 3200) it was 0; in data set [1] (Case 9, Bilateral knee joint replacement postoperation, P 2 mg/body + eta 25, imp/cs 500), 0; in data set [1] (Case 10, Piriformis syndrome, P 1 mg/body + bort 0.35, eta 25, reco 3200) it was 0; in data set [1] (Case 11, Left Achilles peritendinitis, P 1 mg/body), 0; in data set [1] (Case 12, Bilateral gonarthrosis, P 2 mg/body), 0. Moreover, the Side effect in data set [1] (Case 13, Left gonarthrosis, foot arthritis, P 2 mg/body) was 0; in data set [1] (Case 14, Right foot joint MFP syndrome, P 1 mg/body) it was 0. In addition, the “Effect (improvement in symptoms)” value is recorded as 1 in data set [1] (Case 1, Left gonarthritis, P 1 mg/body + imp/cs 500, bv 50, bort 0.35, maxa 10, after 3 weeks or longer); 3 in data set [1] (Case 2, Elbow joint RA 5 y, P 4 mg/body + eta 25, bort 0.35, imp/cs 500, after 3 weeks or longer); 3 in data set [1] (Case 3, Hip osteoarthritis 5 y, P 3 mg/body + eta 25, bort 0.35, maxa 10, imp/cs 501, after 3 weeks or longer); 3 in data set [1] (Case 4, Left shoulder pain, P 3 mg/body + bort 0.35, after 3 weeks or longer); 2 in data set [1] (Case 5, Lumbar spinal stenosis 5 y, P 2 mg/body + bort 0.36, after 3 weeks or longer); 3 in data set [1] (Case 6, Right foot Lisfranc joint injury, P 1 mg/body + bv 50, bort 0.35, eta 25, maxa 10, after 3 weeks or longer). Also, the “Effect (improvement in symptoms)” value in data set [1] (Case 7, Low back pain after spinal compression fracture 1.5 y, P 1 mg/body + bort 0.35, eta 25, maxa 10, reco 3200, after 3 weeks or longer) turned out to be 2; in data set [1] (Case 8, Right knee RA 3.8 y, P 2 mg/body + bort 0.35, eta 25, reco 3200, after 3 weeks or longer) it was 2; in data set [1] (Case 9, Bilateral knee joint replacement postoperation 1.5 y, P 2 mg/body + eta 25, imp/cs 500, after 3 weeks or longer), 1; in data set [1] (Case 10, Piriformis syndrome, P 1 mg/body + bort 0.35, eta 25, reco 3200, after 3 weeks or longer) it was 2; in data set [1] (Case 11, Left Achilles peritendinitis, P 1 mg/body, no combined drug printed, after 3 weeks or longer) it was 3; in data set [1] (Case 12, Bilateral gonarthrosis, P 2 mg/body, no combined drug printed, after 3 weeks or longer), 2. The “Effect (improvement in symptoms)” value is reported as 1 in data set [1] (Case 13, Left gonarthrosis, foot arthritis, P 2 mg/body, no combined drug printed, after 3 weeks or longer) and 2 in data set [1] (Case 14, Right foot joint MFP syndrome, P 1 mg/body, no combined drug printed, after 3 weeks or longer). The “side effects considered to be caused by the therapy” value in data set [1] (all 14 cases, including minor side effects such as transient fever) is on record as “No side effect; also recorded: without any side effects”. Besides, in data set [1] (out of 14 cases, pembrolizumab 1 to 4 mg/body into target vessel, after 3 weeks or longer), the “cases with rating of 2 or more (improvement in symptom)” value worked out at 11. In addition, the chronic pain result in data set [1] (selective arterial infusion to the site of pain, 1 to 2 mg/body, diluted at 1 to 2% in physiological saline) is listed as “cancellation of chronic pain”. Besides, in the data set with microvasculature (Cases 7 and 8, 2 minutes after drug administration (FIGS. 5 and 6)), the abnormal microvascular density entry was “significant decrease in abnormal microvascular density”.

With nivolumab, the tumor response result with tumor (Patient A, breast cancer, nivolumab 10 mg with pertuzumab 60 mg, bortezomib 0.7 mg, thrombomodulin 3200 U, maxacalcitol 10 μg) is recorded as “CR”; in the data set on tumor (Patient B, malignant fibrous histiocytoma in right femur (metastasis to lung), after 3 treatments, 20 mg of nivolumab per administration) it was “CR”; in the data set on tumor (Patient C, liver cancer (hepatitis C), stage II, after two treatments, nivolumab 10 mg with bortezomib 0.7 mg, etanercept 25 mg, maxacalcitol 10 μg, imipenem/cilastatin sodium 500 mg/body), “CR”; in the data set on tumor (Patient D, bladder cancer (chronic myeloid leukemia), stage II, nivolumab 10 mg with bortezomib 0.7 mg, etanercept 25 mg, maxacalcitol 10 μg, thrombomodulin 3200 U), “CR”. Also, in the data set with BCR-ABL mRNA, the “% IS of BCR-ABL mRNA” value was “decreased”.

Consider ipilimumab, for which the “tumor vessel density-decreasing effect” value with microvasculature (by itself, injection into nutrient artery) is reported as “strong tumor vessel density-decreasing effect”.
